Measurements from patent US20070282007A1, “TREATMENT OF PAIN DISORDERS WITH trans 4-(3,4-DICHLOROPHENYL)-1,2,3,4-TETRAHYDRO-1-NAPHTHALENAMINE AND ITS FORMAMIDE” (SEPRACOR INC., priority 2006, published 2007).
pIC50, pKi: −log10 of the molar value.

Tests used:
NE transporter = molecular target: T1, NE transporter (Homo sapiens, UniProt P23975); experiment: Radioligand binding assay, NE transporter ([3H]nisoxetine displacement); conditions: human recombinant; [3H]nisoxetine 0.3 nM; read-out: Ki, Norepinephrine (NE) transporter
T1 construct: expressed in transfected cells
T1 sequence (P23975 whole entry): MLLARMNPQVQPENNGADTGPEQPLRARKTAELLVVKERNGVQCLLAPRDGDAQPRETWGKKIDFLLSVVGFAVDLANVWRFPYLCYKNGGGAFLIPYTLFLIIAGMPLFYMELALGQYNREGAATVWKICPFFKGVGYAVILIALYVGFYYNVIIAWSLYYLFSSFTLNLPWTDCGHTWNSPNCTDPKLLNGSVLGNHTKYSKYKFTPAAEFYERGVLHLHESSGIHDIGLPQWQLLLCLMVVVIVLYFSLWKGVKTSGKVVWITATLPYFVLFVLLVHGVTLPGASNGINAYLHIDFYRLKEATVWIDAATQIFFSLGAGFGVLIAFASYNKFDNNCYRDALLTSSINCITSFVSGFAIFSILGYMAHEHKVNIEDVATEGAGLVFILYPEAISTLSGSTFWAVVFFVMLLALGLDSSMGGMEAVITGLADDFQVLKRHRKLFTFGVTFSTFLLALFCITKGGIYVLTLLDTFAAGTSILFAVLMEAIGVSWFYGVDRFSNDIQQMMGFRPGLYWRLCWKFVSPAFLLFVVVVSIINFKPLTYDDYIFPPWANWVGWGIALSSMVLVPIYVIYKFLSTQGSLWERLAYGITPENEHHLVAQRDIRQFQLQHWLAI
Method: (§1) The assays measured the affinity of the two compounds for transporters of the monoamines 5-HT, NE and DA. […] The transporters were human recombinant proteins expressed in mammalian cells. Binding to the 5-HT transporter was assessed by evaluating displacement of [^3H]paroxetine (0.1 nM). […] Binding to the NE transporter was assessed by evaluating displacement of [^3H]nisoxetine (0.3 nM).

DA transporter = molecular target: T2, DA transporter (Homo sapiens, UniProt Q01959); experiment: Radioligand binding assay, DA transporter ([3H]GBR 12935 displacement); conditions: human recombinant; [3H]GBR 12935 0.5 nM; read-out: Ki, Dopamine (DA) transporter
T2 construct: expressed in transfected cells
T2 sequence (Q01959 whole entry): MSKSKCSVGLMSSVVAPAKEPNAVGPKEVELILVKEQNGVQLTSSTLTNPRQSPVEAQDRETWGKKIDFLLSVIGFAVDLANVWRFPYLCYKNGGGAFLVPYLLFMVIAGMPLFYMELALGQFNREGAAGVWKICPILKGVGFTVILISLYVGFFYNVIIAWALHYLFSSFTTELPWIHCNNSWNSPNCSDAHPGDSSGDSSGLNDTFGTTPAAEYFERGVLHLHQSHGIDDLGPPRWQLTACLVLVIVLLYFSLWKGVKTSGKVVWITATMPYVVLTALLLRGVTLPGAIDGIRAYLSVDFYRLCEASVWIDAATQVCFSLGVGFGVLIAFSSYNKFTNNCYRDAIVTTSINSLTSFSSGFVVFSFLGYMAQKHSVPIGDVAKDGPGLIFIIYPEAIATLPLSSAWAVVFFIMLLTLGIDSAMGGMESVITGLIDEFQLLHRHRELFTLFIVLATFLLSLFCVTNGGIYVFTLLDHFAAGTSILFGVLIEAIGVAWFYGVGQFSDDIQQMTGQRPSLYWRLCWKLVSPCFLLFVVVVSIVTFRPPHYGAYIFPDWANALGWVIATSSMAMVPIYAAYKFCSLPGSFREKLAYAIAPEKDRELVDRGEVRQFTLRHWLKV
Method: as §1

H2 = H2 (Homo sapiens, UniProt P25021); experiment: In vitro radioligand binding assay, H2; conditions: read-out: Ki, H2
Chain of H2 (P25021 whole entry): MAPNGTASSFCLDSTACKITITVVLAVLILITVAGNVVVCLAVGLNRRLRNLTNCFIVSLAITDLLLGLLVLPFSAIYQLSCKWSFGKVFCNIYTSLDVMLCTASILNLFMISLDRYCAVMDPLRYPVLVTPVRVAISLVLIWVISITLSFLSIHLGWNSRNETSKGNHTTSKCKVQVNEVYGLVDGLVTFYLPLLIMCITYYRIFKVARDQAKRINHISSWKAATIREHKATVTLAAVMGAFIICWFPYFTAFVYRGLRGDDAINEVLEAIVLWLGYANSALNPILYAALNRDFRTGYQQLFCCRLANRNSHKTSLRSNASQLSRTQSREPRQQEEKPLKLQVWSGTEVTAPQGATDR

M2 = M2 (Homo sapiens, UniProt P08172); experiment: In vitro radioligand binding assay, M2
Chain of M2 (P08172 whole entry): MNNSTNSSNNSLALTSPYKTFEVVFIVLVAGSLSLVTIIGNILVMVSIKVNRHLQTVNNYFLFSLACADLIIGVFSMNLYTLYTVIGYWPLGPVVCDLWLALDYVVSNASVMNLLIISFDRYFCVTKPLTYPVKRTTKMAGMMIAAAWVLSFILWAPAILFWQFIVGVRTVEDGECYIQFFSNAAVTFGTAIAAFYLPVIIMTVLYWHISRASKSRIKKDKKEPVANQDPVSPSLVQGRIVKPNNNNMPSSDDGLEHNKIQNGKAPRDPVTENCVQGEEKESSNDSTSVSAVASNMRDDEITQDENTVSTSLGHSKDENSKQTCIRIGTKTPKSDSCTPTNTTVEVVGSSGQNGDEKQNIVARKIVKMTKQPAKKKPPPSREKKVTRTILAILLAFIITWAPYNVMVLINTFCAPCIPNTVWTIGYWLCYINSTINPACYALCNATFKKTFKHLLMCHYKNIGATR

M5 = molecular target: T3, M5 (Homo sapiens, UniProt P08912); experiment: In vitro radioligand binding assay, M5; conditions: read-out: Ki, M5
T3 sequence (P08912 1-532): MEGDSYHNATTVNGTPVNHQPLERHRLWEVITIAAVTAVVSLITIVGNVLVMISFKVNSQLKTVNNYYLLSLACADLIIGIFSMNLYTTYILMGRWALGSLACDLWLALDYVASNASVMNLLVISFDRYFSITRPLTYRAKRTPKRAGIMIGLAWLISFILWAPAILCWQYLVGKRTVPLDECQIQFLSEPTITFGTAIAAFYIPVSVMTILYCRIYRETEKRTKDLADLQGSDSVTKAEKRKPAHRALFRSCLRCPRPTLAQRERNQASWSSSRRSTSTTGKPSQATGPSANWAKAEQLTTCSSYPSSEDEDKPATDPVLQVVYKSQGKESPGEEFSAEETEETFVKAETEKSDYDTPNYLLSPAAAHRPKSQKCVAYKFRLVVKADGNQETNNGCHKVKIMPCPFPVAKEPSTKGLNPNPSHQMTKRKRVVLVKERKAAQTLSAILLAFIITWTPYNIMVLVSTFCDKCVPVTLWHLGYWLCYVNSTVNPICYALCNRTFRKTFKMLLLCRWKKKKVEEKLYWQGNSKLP

5-HT1A = molecular target: T4, 5-HT1A (Homo sapiens, UniProt P08908); experiment: In vitro radioligand binding assay, 5-HT1A
T4 sequence (P08908 1-422): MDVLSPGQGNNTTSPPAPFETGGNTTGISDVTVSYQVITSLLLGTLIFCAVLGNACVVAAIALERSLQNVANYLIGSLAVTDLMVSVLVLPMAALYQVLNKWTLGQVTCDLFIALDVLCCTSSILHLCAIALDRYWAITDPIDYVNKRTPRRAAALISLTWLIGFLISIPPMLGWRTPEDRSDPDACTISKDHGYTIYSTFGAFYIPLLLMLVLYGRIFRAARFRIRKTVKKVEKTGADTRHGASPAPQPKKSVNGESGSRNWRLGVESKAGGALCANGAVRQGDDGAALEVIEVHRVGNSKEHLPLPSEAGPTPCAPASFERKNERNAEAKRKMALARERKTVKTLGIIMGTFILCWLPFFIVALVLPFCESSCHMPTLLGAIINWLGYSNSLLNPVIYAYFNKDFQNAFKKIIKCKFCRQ

5-HT1B = 5-HT1B (Homo sapiens, UniProt P28222); experiment: In vitro radioligand binding assay, 5-HT1B
Chain of 5-HT1B (P28222 whole entry, species assumed): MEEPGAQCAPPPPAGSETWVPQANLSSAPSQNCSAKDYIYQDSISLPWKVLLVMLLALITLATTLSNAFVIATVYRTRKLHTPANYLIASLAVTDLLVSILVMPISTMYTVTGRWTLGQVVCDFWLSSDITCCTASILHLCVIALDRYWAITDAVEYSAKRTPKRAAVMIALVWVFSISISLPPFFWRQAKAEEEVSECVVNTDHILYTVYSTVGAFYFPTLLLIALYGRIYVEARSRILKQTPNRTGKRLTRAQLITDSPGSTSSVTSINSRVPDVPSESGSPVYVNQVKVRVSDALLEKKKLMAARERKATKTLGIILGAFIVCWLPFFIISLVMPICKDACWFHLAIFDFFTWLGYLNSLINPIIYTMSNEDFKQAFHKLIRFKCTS

5-HT2A = 5-HT2A (Homo sapiens, UniProt P28223); experiment: In vitro radioligand binding assay, 5-HT2A
Chain of 5-HT2A (P28223 whole entry, species assumed): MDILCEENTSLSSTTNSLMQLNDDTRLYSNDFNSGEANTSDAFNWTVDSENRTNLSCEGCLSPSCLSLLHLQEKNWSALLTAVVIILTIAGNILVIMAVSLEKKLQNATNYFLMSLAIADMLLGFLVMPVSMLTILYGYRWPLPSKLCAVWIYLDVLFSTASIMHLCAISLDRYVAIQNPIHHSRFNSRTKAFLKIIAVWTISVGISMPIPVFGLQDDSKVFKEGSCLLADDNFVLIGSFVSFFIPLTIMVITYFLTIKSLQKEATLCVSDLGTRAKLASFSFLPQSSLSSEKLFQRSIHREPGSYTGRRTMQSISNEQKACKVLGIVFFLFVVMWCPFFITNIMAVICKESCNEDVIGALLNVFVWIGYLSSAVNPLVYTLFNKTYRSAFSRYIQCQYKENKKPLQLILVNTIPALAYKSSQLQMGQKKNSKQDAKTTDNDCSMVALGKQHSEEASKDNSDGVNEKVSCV

Na^+ Channel Site 2 = experiment: In vitro radioligand binding assay, Na+ channel site 2
M3 receptor = molecular target: T5, M3 receptor (Cavia porcellus, UniProt H0W1Z3); experiment: Carbachol-induced contraction of the isolated Guinea pig ileum
T5 construct: from tissue; host or cells: isolated guinea pig ileum
T5 sequence (H0W1Z3 1-590): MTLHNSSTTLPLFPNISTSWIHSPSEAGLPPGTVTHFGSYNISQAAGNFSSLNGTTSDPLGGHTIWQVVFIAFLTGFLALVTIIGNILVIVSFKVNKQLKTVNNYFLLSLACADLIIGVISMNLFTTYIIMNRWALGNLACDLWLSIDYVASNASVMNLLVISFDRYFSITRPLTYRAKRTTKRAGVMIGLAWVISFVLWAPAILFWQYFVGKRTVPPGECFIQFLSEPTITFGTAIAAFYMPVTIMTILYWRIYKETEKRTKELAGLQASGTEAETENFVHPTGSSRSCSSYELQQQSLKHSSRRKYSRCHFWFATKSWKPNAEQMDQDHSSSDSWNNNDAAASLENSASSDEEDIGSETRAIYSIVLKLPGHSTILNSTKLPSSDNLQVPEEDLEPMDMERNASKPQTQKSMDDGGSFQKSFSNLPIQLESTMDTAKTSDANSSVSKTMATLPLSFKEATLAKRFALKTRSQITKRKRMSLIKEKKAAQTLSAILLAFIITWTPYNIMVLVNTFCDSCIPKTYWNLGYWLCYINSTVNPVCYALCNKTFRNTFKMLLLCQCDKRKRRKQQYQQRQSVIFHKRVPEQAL

hERG channel = hERG channel (Homo sapiens, UniProt Q12809); experiment: hERG channel current in stably transfected HEK293 cells
Chain of hERG channel (Q12809 whole entry): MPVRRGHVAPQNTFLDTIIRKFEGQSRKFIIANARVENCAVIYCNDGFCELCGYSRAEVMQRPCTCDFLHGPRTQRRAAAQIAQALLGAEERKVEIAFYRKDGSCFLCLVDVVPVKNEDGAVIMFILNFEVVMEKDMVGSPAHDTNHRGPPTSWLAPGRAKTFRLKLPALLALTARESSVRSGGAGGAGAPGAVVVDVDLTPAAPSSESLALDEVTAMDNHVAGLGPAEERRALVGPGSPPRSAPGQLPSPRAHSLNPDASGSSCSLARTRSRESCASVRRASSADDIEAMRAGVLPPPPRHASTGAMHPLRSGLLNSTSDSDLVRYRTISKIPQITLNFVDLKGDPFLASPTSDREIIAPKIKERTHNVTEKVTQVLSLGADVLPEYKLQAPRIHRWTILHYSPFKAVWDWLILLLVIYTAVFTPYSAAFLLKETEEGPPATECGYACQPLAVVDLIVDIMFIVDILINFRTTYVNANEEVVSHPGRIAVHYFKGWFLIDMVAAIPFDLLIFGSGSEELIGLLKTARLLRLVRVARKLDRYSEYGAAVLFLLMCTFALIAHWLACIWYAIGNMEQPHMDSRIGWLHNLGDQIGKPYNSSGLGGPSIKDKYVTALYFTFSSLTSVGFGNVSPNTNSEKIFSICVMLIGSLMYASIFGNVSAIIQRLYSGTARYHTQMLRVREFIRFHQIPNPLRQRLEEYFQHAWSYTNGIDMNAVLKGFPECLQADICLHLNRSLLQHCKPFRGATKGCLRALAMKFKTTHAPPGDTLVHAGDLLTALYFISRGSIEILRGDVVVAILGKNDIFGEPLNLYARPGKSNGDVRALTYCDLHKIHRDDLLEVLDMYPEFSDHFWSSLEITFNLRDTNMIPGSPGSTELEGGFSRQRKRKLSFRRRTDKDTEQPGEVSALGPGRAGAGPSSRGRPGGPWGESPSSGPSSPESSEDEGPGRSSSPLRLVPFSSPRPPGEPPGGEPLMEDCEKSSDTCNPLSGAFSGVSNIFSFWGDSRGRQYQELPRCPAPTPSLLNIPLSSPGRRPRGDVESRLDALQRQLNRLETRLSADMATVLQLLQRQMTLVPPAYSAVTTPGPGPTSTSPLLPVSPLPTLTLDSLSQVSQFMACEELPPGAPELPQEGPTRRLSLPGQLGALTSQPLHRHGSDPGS
Method: Studies were conducted to determine effects on IKr, the rapidly activating delayed rectifier cardiac potassium current in the human heart. […] In this assay system, HERG channel current serves as a surrogate for IKr.

Beagle dogs = experiment: Cardiovascular safety study in conscious telemetered dogs; format: in vivo; conditions: single oral doses 0.5, 1.5 and 5 mg/kg
Method: There were four animals/compound and each animal within the treatment group was exposed to the three doses (plus a empty capsule control), in a dose ramp-up manner with a minimum of 72 hours between doses.

Rat SNL Model = experiment: SNL model of neuropathic pain, mechanical allodynia testing; format: in vivo
Method: The animals were anesthetized with isoflurane, the left L5 transverse process was removed, and the L5 and L6 spinal nerves were tightly ligated with 6-0 silk suture. The wound was then closed with internal sutures and external staples. Wound clips were removed 10-11 days following surgery.
Animals were placed on a perforated metallic platform and allowed to acclimate to their surroundings for a minimum of 30 minutes before testing. The mean and standard error of the mean (SEM) were determined for each animal in each treatment group. Since this stimulus is normally not considered painful, significant injury-induced increases in responsiveness in this test are interpreted as a measure of mechanical allodynia. Mechanical allodynia was evaluated 14 days post-surgery.
Ten rats were studied per group and the tests were performed blind. (1R,4S)-4-(3,4-dichlorophenyl)-1,2,3,4-tetrahydro-1-naphthalenamine (P) was evaluated at 3 doses (5, 10 and 15 mg/kg), administered orally and compared with a vehicle control group. Gabapentin (100 mg/kg) and duloxetine (30 mg/kg) administered orally under the same experimental conditions, were used as comparator substances. Mechanical allodynia and hyperalgesia testing were conducted at baseline and 1, 2 and 4 hours after test article administration.

N[C@@H]1CC[C@@H](c2ccc(Cl)c(Cl)c2)c2ccccc21 [Compound P, (1R,4S)-trans 4-(3,4-dichlorophenyl)-1,2,3,4-tetrahydro-1-napthalenamine]
pKi (NE transporter): 7.70
pKi (DA transporter): 7.80
pKi (H2): 5.40
pKi (M2): 5.30
pKi (M5): 5.08
pKi (5-HT1A): 5.96
pKi (5-HT1B): 6.00
pKi (5-HT2A): 6.14
pKi (Na^+ Channel Site 2): 6.00
pIC50 (M3 receptor; duplicate samples, read-out: IC50 for inhibition of carbachol-induced contraction of the Guinea Pig ileum): 5.05
M3 agonist effect on isolated Guinea pig ileum (M3 receptor; graded concentrations, compound alone): no an M3 agonist
pIC50 (hERG channel): 6.10
effect on heart rate, blood pressure or ECG parameters (including QTc) (Beagle dogs): no effect
Mechanical Allodynia, Paw Withdrawal Threshold (Mean ± SEM) (Rat SNL Model; 5 mg/kg PO, 0 h (Baseline)): 3.1 ± 0.2 g
Mechanical Allodynia, Paw Withdrawal Threshold (Mean ± SEM) (Rat SNL Model; 5 mg/kg PO, 1 h): 3.7 ± 0.3 g
Mechanical Allodynia, Paw Withdrawal Threshold (Mean ± SEM) (Rat SNL Model; 5 mg/kg PO, 2 h): 3.2 ± 0.2 g
Mechanical Allodynia, Paw Withdrawal Threshold (Mean ± SEM) (Rat SNL Model; 5 mg/kg PO, 4 h): 3.9 ± 0.2 g
Mechanical Allodynia, Paw Withdrawal Threshold (Mean ± SEM) (Rat SNL Model; 10 mg/kg PO, 0 h (Baseline)): 2.8 ± 0.2 g
Mechanical Allodynia, Paw Withdrawal Threshold (Mean ± SEM) (Rat SNL Model; 10 mg/kg PO, 1 h): 5.0 ± 0.3 g
Mechanical Allodynia, Paw Withdrawal Threshold (Mean ± SEM) (Rat SNL Model; 10 mg/kg PO, 2 h): 5.7 ± 0.5 g
Mechanical Allodynia, Paw Withdrawal Threshold (Mean ± SEM) (Rat SNL Model; 10 mg/kg PO, 4 h): 6.6 ± 0.4 g
Mechanical Allodynia, Paw Withdrawal Threshold (Mean ± SEM) (Rat SNL Model; 15 mg/kg PO, 0 h (Baseline)): 2.9 ± 0.1 g
Mechanical Allodynia, Paw Withdrawal Threshold (Mean ± SEM) (Rat SNL Model; 15 mg/kg PO, 1 h): 8.8 ± 0.6 g
Mechanical Allodynia, Paw Withdrawal Threshold (Mean ± SEM) (Rat SNL Model; 15 mg/kg PO, 2 h): 7.5 ± 0.5 g
Mechanical Allodynia, Paw Withdrawal Threshold (Mean ± SEM) (Rat SNL Model; 15 mg/kg PO, 4 h): 13.6 ± 0.3 g
